These compounds were tested against T1, NLRP3 (Homo sapiens, UniProt Q96P20) (assay: Measurement of IL-1β production in PMA-differentiated THP-1 cells (NLRP3 hIL1B)).
T1 construct: host or cells: PMA-differentiated THP-1 cells
Type: cell-based
Experimental: Measurement of IL-1β Production in PMA-Differentiated THP-1 Cells
THP-1 cells were purchased from the American Type Culture Collection and sub-cultured according to instructions from the supplier. Prior to experiments, cells were cultured in RPMI 1640 containing 10% heat inactivated FBS, penicillin (100 units/ml) and streptomycin (100 μg/ml), and maintained in log phase prior to experimental setup. Prior to the experiment THP-1 were treated with PMA (Phorbol 12-myristate 13-acetate) (10 μg/ml) for 24 hours. The day of the experiment the media was removed and attaching cells were treated with trypsin for 2 minutes, cells were then collected, washed with PBS (phosphate buffer saline), spin down, resuspended in 2% heat inactivated FBS with RPMI at a concentration of 1×10^6 cells/ml, and 100 μl was plated in a 96 well plate. Compounds were dissolved in dimethyl sulfoxide (DMSO) and added to the culture medium to achieve desired concentration (e.g. 100, 30, 10, 3, 1, 0.3 or 0.1 μM). Cells were incubated with compounds for 4 hours. Cell free supernatant was collected and the production of IL-1β was evaluated by ELISA. A vehicle only control was run concurrently with each experiment. Final DMSO concentration was 1%.
Measurement of IL-1β Production in PMA-Differentiated THP-1 Cells (Alternative Procedure)
THP-1 cells were purchased from the American Type Culture Collection and sub-cultured according to instructions from the supplier. Prior to experiments, cells were cultured in RPMI 1640 containing 10% heat inactivated FBS, penicillin (100 units/ml), streptomycin (100 μg/ml), HEPES (10 mM) and sodium pyruvate (1 mM) and maintained in log phase prior to experimental setup. Prior to the experiment, THP-1 cells were treated with PMA (Phorbol 12-myristate 13-acetate) (20 μg/ml) overnight. The day of the experiment, the media was removed and attached cells were treated with trypsin for 2 minutes, cells were then collected, washed with PBS (phosphate buffer saline), pelleted by centrifugation and resuspended in 2% heat inactivated FBS with RPMI at a concentration of 50,000 cells/well in a 384 well plate. Cell free supernatant was collected and the production of IL-1β was evaluated by ELISA. Compounds were dissolved in dimethyl sulfoxide (DMSO) and added to the culture medium to achieve desired concentration (e.g. 100, 30, 10, 3, 1, 0.3 or 0.1 μM). Cells were incubated with compounds for 2 hours. A vehicle only control was run concurrently with each experiment. Final DMSO concentration was 1%.
Measurement of IL-1β Production—hTRF Protocol (Second Alternative Procedure)
Serial dilutions of compounds in DMSO were added to low volume 384 well plates at 100 nl/well using an ECHO 550 acoustic dispenser (Labcyte) to achieve final starting concentration of 10 μM in assay.
THP-1 cells in RPMI (Gibco, 11875) media with 10% FBS at a density of 1×10^6 cell/ml in a T175 flask were treated with a final concentration of phorbol 12-myristate 13-acetate (PMA) (Sigma, P1585) of 50 ng/ml overnight at 37° C. at 5% CO2 for differentiation. Cells were harvested the next day after rinsing well with dPBS using 0.5% trypsin. A cell solution was prepared of 1×10^6 cells/ml for 50,000 cells in 50 μl/well in RPMI media with 2% FBS. Cells were plated using a multichannel pipette onto the compound dilutions in Greiner, 384 well, black clear bottom tissue culture treated plates (781090). The plates were incubated in 37° C. incubator at 5% CO2 for 2 hours.
After the 2 hour incubation, the cell plates were spun in the centrifuge for 5 minutes at 1200 rpm. Using the Felix (CyBio), 8 μl of the supernatant was transferred to 384 well, low volume, white proxy plates. (Perkin Elmer, 6008230). A human IL1beta hTRF kit was used to analyze the supernatant (CISBIO, 62HIL1BPEG). The kit instructions were followed for preparing the IL1Beta standard curve and then the antibodies from the kit were diluted 1:40 rather than 1:20 as kit instructed.

T1 sequence (Q96P20 whole entry): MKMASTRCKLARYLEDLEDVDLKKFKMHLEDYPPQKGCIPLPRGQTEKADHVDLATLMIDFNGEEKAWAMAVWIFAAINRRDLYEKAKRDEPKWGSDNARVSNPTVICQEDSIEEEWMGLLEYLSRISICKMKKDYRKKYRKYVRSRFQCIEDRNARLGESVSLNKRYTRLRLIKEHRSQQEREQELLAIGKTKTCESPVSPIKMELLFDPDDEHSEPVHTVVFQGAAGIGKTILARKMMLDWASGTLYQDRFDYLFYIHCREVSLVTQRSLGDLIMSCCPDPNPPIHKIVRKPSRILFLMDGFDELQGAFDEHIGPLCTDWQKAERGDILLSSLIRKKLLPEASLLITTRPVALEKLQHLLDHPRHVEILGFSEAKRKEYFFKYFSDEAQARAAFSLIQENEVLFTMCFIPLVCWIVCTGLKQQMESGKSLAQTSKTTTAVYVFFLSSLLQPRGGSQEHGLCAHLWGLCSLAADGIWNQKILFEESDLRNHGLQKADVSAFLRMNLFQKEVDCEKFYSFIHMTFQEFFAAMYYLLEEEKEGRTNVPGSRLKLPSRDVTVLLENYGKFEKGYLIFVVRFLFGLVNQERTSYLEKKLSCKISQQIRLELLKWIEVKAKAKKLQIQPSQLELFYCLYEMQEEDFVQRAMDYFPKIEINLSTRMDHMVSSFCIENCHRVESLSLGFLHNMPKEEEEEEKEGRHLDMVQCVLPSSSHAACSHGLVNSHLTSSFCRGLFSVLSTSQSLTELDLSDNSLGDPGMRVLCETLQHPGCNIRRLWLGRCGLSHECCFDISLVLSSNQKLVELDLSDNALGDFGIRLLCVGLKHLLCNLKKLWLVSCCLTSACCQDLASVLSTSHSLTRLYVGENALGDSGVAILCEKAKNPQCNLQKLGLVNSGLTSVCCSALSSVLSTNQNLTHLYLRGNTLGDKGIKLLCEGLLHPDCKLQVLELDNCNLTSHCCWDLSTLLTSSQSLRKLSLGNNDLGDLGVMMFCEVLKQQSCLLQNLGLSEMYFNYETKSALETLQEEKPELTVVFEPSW

Row | Compound | EC50
1 | Nc1nc(NCCCO)c2cc(Cl)c(-c3ccn[nH]3)cc2n1 [Example 3, 3-((2-amino-6-chloro-7-(1H-pyrazol-5-yl)quinazolin-4-yl)amino)propan-1-ol] | 6840 nM
2 | Cn1ncnc1COc1nc(N)nc2cc(-c3ccn[nH]3)ccc12 [Example 7, 4-((1-methyl-1H-1,2,4-triazol-5-yl)methoxy)-7-(1H-pyrazol-5-yl)quinazolin-2-amine] | 4460 nM
3 | Nc1nc(NCCCO)c2c(F)cc(-c3ccn[nH]3)cc2n1 [Example 15, 3-((2-amino-5-fluoro-7-(1H-pyrazol-3-yl)quinazolin-4-yl)amino)propan-1-ol] | 240 nM
4 | Nc1nc(NCCCO)c2c(Cl)cc(-c3cc[nH]n3)cc2n1 [Example 18, 3-((2-amino-5-chloro-7-(1H-pyrazol-3-yl)quinazolin-4-yl)amino)propan-1-ol] | 650 nM
5 | Nc1nc(NCCCO)c2c(-c3cc[nH]n3)cc(-c3cc[nH]n3)cc2n1 [Example 19, 3-((2-amino-5,7-di(1H-pyrazol-3-yl)quinazolin-4-yl)amino)propan-1-ol] | 9860 nM
6 | Cc1cc(-c2cc[nH]n2)cc2nc(N)nc(NCCCO)c12 [Example 21, 3-((2-amino-5-methyl-7-(1H-pyrazol-3-yl)quinazolin-4-yl)amino)propan-1-ol] | 650 nM
7 | CN(C)c1cc(-c2cc[nH]n2)cc2nc(N)nc(NCCCO)c12 [Example 22, 3-((2-amino-5-(dimethylamino)-7-(1H-pyrazol-3-yl)quinazolin-4-yl)amino)propan-1-ol] | 9240 nM
8 | Nc1nc(N[C@H]2CCOC2)c2ccc(-c3ccn[nH]3)cc2n1 [Example 23, (S)-7-(1H-pyrazol-5-yl)-N4-(tetrahydrofuran-3-yl)quinazoline-2,4-diamine] | 670 nM
9 | Nc1nc(NCCCO)c2cc(F)c(-c3ccn[nH]3)cc2n1 [Example 24, 3-((2-amino-6-fluoro-7-(1H-pyrazol-5-yl)quinazolin-4-yl)amino)propan-1-ol] | 1680 nM
10 | Nc1nc(NCC(F)(F)c2ccccn2)c2ccc(-c3ccn[nH]3)cc2n1 [Example 26] | 120 nM
11 | Nc1nc(N[C@@H]2CCC[C@@H]2O)c2ccc(-c3ccn[nH]3)cc2n1 [Example 30] | 300 nM
12 | Nc1nc(NCCn2cncn2)c2ccc(-c3ccn[nH]3)cc2n1 [Example 31] | 800 nM
13 | Nc1nc(NCC2(O)CCOCC2)c2ccc(-c3ccn[nH]3)cc2n1 [Example 37] | 870 nM
14 | Nc1nc(NCC2(O)CCC2)c2ccc(-c3ccn[nH]3)cc2n1 [Example 38] | 320 nM
15 | Nc1nc(NCC(O)CC(F)(F)F)c2ccc(-c3ccn[nH]3)cc2n1 (centres unmarked) [Example 41] | 760 nM
16 | Nc1nc(NCC2CCC(=O)N2)c2ccc(-c3ccn[nH]3)cc2n1 (centres unmarked) [Example 43] | 1040 nM
17 | Nc1nc(NCc2cc3n(n2)CCCO3)c2ccc(-c3ccn[nH]3)cc2n1 [Example 44] | 2150 nM
18 | Nc1nc(N[C@@H]2CC[C@@H](O)C2)c2ccc(-c3ccn[nH]3)cc2n1 [Example 46] | 210 nM
19 | Nc1nc(N[C@H]2CC[C@H](O)C2)c2ccc(-c3ccn[nH]3)cc2n1 [Example 47] | 550 nM
20 | Nc1nc(NCc2ncccn2)c2ccc(-c3ccn[nH]3)cc2n1 [Example 51] | 320 nM
21 | Nc1nc(NCc2cnccn2)c2ccc(-c3ccn[nH]3)cc2n1 [Example 52] | 780 nM
22 | Nc1nc(N[C@H]2COCC[C@@H]2O)c2ccc(-c3ccn[nH]3)cc2n1 [Example 53] | 1350 nM
23 | Nc1nc(NC2CCS(=O)(=O)CC2)c2ccc(-c3ccn[nH]3)cc2n1 [Example 55] | 19700 nM
24 | N#CCCNc1nc(N)nc2cc(-c3ccn[nH]3)ccc12 [Example 58] | 700 nM
25 | Nc1nc(N[C@H]2CC[C@@H](CO)C2)c2ccc(-c3ccn[nH]3)cc2n1 [Example 63] | 1750 nM
26 | Nc1nc(N[C@H]2CCC[C@H]2O)c2ccc(-c3ccn[nH]3)cc2n1 [Example 66] | 740 nM
27 | Nc1nc(N[C@H]2CCCC[C@H]2O)c2ccc(-c3ccn[nH]3)cc2n1 [Example 67] | 2260 nM

Results, then the compound that gave them:

Row | EC50 | Compound
28 | 70 nM | CC(CCO)Nc1nc(N)nc2cc(-c3ccn[nH]3)ccc12 (single isomer, unassigned) [Example 201, 3-((2-amino-7-(1H-pyrazol-5-yl)quinazolin-4-yl)amino)butan-1-ol]
29 | 880 nM | COC(CO)CNc1nc(N)nc2cc(-c3ccn[nH]3)ccc12 (single isomer, unassigned) [Example 202, 3-((2-amino-7-(1H-pyrazol-5-yl)quinazolin-4-yl)amino)-2-methoxypropan-1-ol]
30 | 450 nM | COC(CO)CNc1nc(N)nc2cc(-c3ccn[nH]3)ccc12 (single isomer, unassigned) [Example 203, 3-((2-amino-7-(1H-pyrazol-5-yl)quinazolin-4-yl)amino)-2-methoxypropan-1-ol]
31 | 450 nM | C[C@@H](O)CNc1nc(N)nc2cc(-c3ccn[nH]3)ccc12 [Example 1, (R)-1-((2-amino-7-(1H-pyrazol-5-yl)quinazolin-4-yl)amino)propan-2-ol]
32 | 220 nM | Nc1nc(Nc2cc[nH]n2)c2ccc(-c3ccn[nH]3)cc2n1 [Example 2, N4-(1H-pyrazol-3-yl)-7-(1H-pyrazol-5-yl)quinazoline-2,4-diamine]
33 | 370 nM | Nc1nc(NCCCO)c2ccc(-c3ccn[nH]3)cc2n1 [Example 14, 3-((2-amino-7-(1H-pyrazol-3-yl)quinazolin-4-yl)amino)propan-1-ol]
34 | 430 nM | Nc1nc(NCc2cc[nH]n2)c2ccc(-c3ccn[nH]3)cc2n1 [Example 27]
35 | 240 nM | Nc1nc(NCc2nccs2)c2ccc(-c3ccn[nH]3)cc2n1 [Example 28]
36 | 390 nM | CC(C)(O)CNc1nc(N)nc2cc(-c3ccn[nH]3)ccc12 [Example 29]
37 | 640 nM | Nc1nc(NCc2nc[nH]n2)c2ccc(-c3ccn[nH]3)cc2n1 [Example 32]
38 | 5390 nM | Nc1nc(NC(CO)c2cc[nH]n2)c2ccc(-c3ccn[nH]3)cc2n1 (centres unmarked) [Example 33]
39 | 7670 nM | Nc1nc(NC(CO)c2ncc[nH]2)c2ccc(-c3ccn[nH]3)cc2n1 (centres unmarked) [Example 34]
40 | 5530 nM | Nc1nc(NC(CO)c2nccs2)c2ccc(-c3ccn[nH]3)cc2n1 (centres unmarked) [Example 35]
41 | 710 nM | C[C@H](O)CNc1nc(N)nc2cc(-c3ccn[nH]3)ccc12 [Example 36]
42 | 1320 nM | Nc1nc(NCc2ncc[nH]2)c2ccc(-c3ccn[nH]3)cc2n1 [Example 39]
43 | 2240 nM | CN(C)CC(O)CNc1nc(N)nc2cc(-c3ccn[nH]3)ccc12 (centres unmarked) [Example 40]
44 | 450 nM | Nc1nc(NCCO)c2ccc(-c3ccn[nH]3)cc2n1 [Example 45]
45 | 2920 nM | COc1ncc(CNc2nc(N)nc3cc(-c4ccn[nH]4)ccc23)cn1 [Example 48]
46 | 460 nM | Nc1nc(NCc2cncnc2)c2ccc(-c3ccn[nH]3)cc2n1 [Example 49]
47 | 1870 nM | Nc1nc(NCc2ccncn2)c2ccc(-c3ccn[nH]3)cc2n1 [Example 50]
48 | 4010 nM | Nc1nc(N[C@H](CO)Cc2c[nH]cn2)c2ccc(-c3ccn[nH]3)cc2n1 [Example 54]
49 | 3490 nM | Nc1nc(NCc2ccnnc2)c2ccc(-c3ccn[nH]3)cc2n1 [Example 60]
50 | 220 nM | Nc1nc(NCc2ncco2)c2ccc(-c3ccn[nH]3)cc2n1 [Example 61]
51 | 1250 nM | Nc1nc(NC(CO)c2cccnc2)c2ccc(-c3ccn[nH]3)cc2n1 (centres unmarked) [Example 62]
52 | 3730 nM | C[C@@H](O)[C@@H](CO)Nc1nc(N)nc2cc(-c3ccn[nH]3)ccc12 [Example 64]
53 | 250 nM | Nc1nc(NC2(CO)CC2)c2ccc(-c3ccn[nH]3)cc2n1 [Example 65]
